In US8710071B2, “Compounds, compositions and methods for reducing lipid levels” (CVI Pharmaceuticals Limited, priority 2008, dated 2014):

Legend:
LDLR = LDLR protein expression in HepG2 cells, Western blot; assay type: cell-based, human; conditions: 20 μM, 1, 2, and 3 days
Protocol: (§1) Cells were harvested after 1, 2, and 3 days treatment and western blot analysis was conducted using antibodies directed to LDLR and PCSK9. Chicken anti-LDLR was purchased from Abeam, the mouse anti-PCSK9 was purchased from Cayman Chemicals, and anti-pACC was purchased from Cell Signaling.
(§2) To determine whether the stimulatory effects of statins on LDLR protein expression could be enhanced by some new compounds invented herein, HepG2 cells were untreated or treated with a low dose of rosuvastatin (RSV) at 0.3 and 1 uM concentration in the absence or the presence of Compound 127(+), or treated with low concentrations of Compound 127(+) alone for 2 days. Western blot analysis was conducted to examine LDLR and PCSK9 protein levels. Compound 127(+) is the single enantiomer of compound 127 with a positive optical rotation. […] Furthermore, the inducing effects of RSV on PCSK9 protein levels were anatagonized by compound 127(+).
(§3) Chicken anti-LDLR was purchased from Abeam and the mouse anti-PCSK9 was purchased from Cayman Chemicals. HepG2 cells cultured in 60-mm dishes were incubated overnight in medium containing 0.5% fetal bovine serum prior to the addition of compounds at 20 uM concentration for 1-3 days. Total cell lysate was isolated and 50 μg of protein was separated on SDS-PAGE and transferred to nitrocellulose membrane for immunoblotting with anti-LDLR, anti-PCSK9, and anti-p-ACC.

PCSK9 = PCSK9 protein expression in HepG2 cells, Western blot; assay type: cell-based, human; conditions: 20 μM, 1, 2, and 3 days
Protocol: as §1, §2, §3

hyperlipidemic rabbits [1] = test: Lipid lowering effects and blood chemistry in hyperlipidemic rabbits; conditions: for Body weight: after 14 days of drug treatment; for Body weight / ALP / ALT / AST / CK / CREA / GLU / HDL-C / LDH / LDL-C / TC / TG: mean, n = 6; for serum total cholesterol levels, treatment day 0: day 0 (before the drug treatment), n = 6, in mmol/L (unit assumed); for serum total cholesterol levels, treatment day 0 / serum total cholesterol levels, treatment day 4 / serum total cholesterol levels, treatment day 7 / serum total cholesterol levels, treatment day 10 / serum total cholesterol levels, treatment day 14: mean ± SD; for serum total cholesterol levels, treatment day 4: day 4, oral gavage once a day; for serum total cholesterol levels, treatment day 4 / serum total cholesterol levels, treatment day 7: 128(+)/128(−) 30 mg/kg, SMV/ATV 3 mg/kg; for serum total cholesterol levels, treatment day 7: day 7, oral gavage once a day; for serum total cholesterol levels, treatment day 10: day 10, doses increased after day 7 to 60 mg/kg (128(+)/128(−)) and 10 mg/kg (SMV/ATV), in mmol/L (unit assumed); for serum total cholesterol levels, treatment day 14: day 14, doses increased after day 7 to 60 mg/kg (128(+)/128(−)) and 10 mg/kg (SMV/ATV); for ALP / ALT / AST / CK / CREA / GLU / HDL-C / LDH / LDL-C / TC / TG: serum after 14 days of drug treatment
Protocol: (§4) Forty-two male Japanese rabbits were fed the cholesterol enriched rabbit diet for two weeks to induce hypercholesterolemia. […] Serum samples were collected at day 0 (before the drug treatment) and day 7. […] All tested animals were sacrified at the end of a total of 14 days treatment and serum samples were analyzed for TC, LDL-C, TG, and HDL-C. In addition to lipid profiles, a number of biochemical parameters were also analyzed to aseesee the effects of drug treatments on liver function, muscle function, kidney function, and heart function.

[2] = system: acetyl coenzyme A carboxylase (ACC); test: ACC phosphorylation in HepG2 cells, Western blot; assay type: cell-based, human; conditions: 20 μM, 1, 2, and 3 days (FIG. 12)
Protocol: HepG2 cells were treated with 20 μg/ml14R-(+)-THP for 0.5, 2, or 8 hours. Cells were lysed, and 50 μg protein from each sample was subjected to SDS-PAGE, followed by Western blotting using anti-phosphorylated ACC (Cell Signaling) and subsequently reprobed with antibody against β-actin.
as §1

hyperlipidemic rabbits [3] = conditions: rabbit, in vivo
Protocol: as §4

LDLR mRNA = LDLR mRNA expression in HepG2 cells, quantitative real-time RT-PCR; assay type: cell-based, human; conditions: indicated concentrations, 24 hours (FIG. 15A)
Protocol: Activities of some compounds of Formulas I, II, III, and IV on LDLR mRNA expression were determined. HepG2 cells were treated with new compounds individually at a dose less than or equal to 10 μM for 24 hours. Total RNA was harvested for quantitative real-time RT-PCR analysis using the method described in Example 16B. […] In these experiments, berberine chloride was included for comparison.
The time-dependent effects of compounds of Formula I, II, III, and IV on the upregulation of LDLR mRNA and the inhibition of PCSK9 mRNA expression were examined (Horton J D, Cohen J C, Hobbs H I T. “Molecular biology of PCSK9: its role in LDL metabolism” TRENDS in Biochemical Sciences 2007; 32:71-77). HepG2 cells were treated with new compounds individually at 20 uM dose for 1 day, 2 day, and 3 days. Total RNA was isolated and 2 μg was used to generate cDNA in a reaction containing random primers and M-MLV at 37° C. for 1 hour in a volume of 25 μl. Real-time PCR was performed on the cDNA using MCEP REALPLEX 2 SYSTEM (Eppendorf) and Universal MasterMix (Applied Biosystems). Human LDLR, PCSK9, and GAPDH Pre-Developed TaqMan Assay Reagents (Applied Biosystems) were used to assess the levels of mRNA expressions in HepG2. The levels of LDLR mRNA or PCSK9 mRNA were normalized to that of GAPDH. Each RNA samples was assayed in triplicate. The abundance of LDLR mRNA or PCSK9 mRNA in untreated cells was defined as 1, and the amounts of LDLR mRNA or PCSK9 from compound-treated cells were plotted relative to that value (FIG. 10). The data shown are mean±s.d.
Total RNA was harvested for quantitative real-time RT-PCR analysis using method described in Examples 16B.
The effects of 23 compounds on the mRNA expressions of LDLR and PCSK9 were examined using quantitative real-time RT-PCR assays. HepG2 cells were treated with various compounds at 10 and 40 uM concentrations for 24 hours. Total RNA was isolated and […] was used to generate cDNA in a reaction containing random primers and M-MLV at 37° C. for 1 h in a volume of 25 μl. Real-time PCR was performed on the cDNA using MCEP REALPLEX 2 SYSTEM (Eppendorf) and Universal MasterMix (Applied Biosystems). Human LDLR, PCSK9, and GAPDH Pre-Developed TaqMan Assay Reagents (Applied Biosystems) were used to assess the levels of mRNA expressions in HepG2. The levels of LDLR and PCSK9 mRNA were normalized to that of GAPDH. Each RNA samples was assayed in duplicate. The fold activity was calculated by dividing mRNA abundance in compound treated cells with that of control.

PCSK9 mRNA = PCSK9 mRNA expression in HepG2 cells, quantitative real-time RT-PCR; assay type: cell-based, human; conditions: indicated concentrations, 24 hours (FIG. 15B)
Protocol: The time-dependent effects of compounds of Formula I, II, III, and IV on the upregulation of LDLR mRNA and the inhibition of PCSK9 mRNA expression were examined (Horton J D, Cohen J C, Hobbs H I T. “Molecular biology of PCSK9: its role in LDL metabolism” TRENDS in Biochemical Sciences 2007; 32:71-77). HepG2 cells were treated with new compounds individually at 20 uM dose for 1 day, 2 day, and 3 days. Total RNA was isolated and 2 μg was used to generate cDNA in a reaction containing random primers and M-MLV at 37° C. for 1 hour in a volume of 25 μl. Real-time PCR was performed on the cDNA using MCEP REALPLEX 2 SYSTEM (Eppendorf) and Universal MasterMix (Applied Biosystems). Human LDLR, PCSK9, and GAPDH Pre-Developed TaqMan Assay Reagents (Applied Biosystems) were used to assess the levels of mRNA expressions in HepG2. The levels of LDLR mRNA or PCSK9 mRNA were normalized to that of GAPDH. Each RNA samples was assayed in triplicate. […]
Total RNA was harvested for quantitative real-time RT-PCR analysis using method described in Examples 16B. […]
The effects of 23 compounds on the mRNA expressions of LDLR and PCSK9 were examined using quantitative real-time RT-PCR assays. […] The fold activity was calculated by dividing mRNA abundance in compound treated cells with that of control.

COc1ccc2c(c1)CCN1Cc3c(ccc(OC)c3OS(=O)(=O)c3cccc(F)c3)CC21 (single isomer, unassigned) [128(+)]
LDLR protein levels (LDLR): effectively increased
expression of PCSK9 (protein) (PCSK9): strongly inhibited
Body weight (hyperlipidemic rabbits [1]): 2.6 kg
serum total cholesterol levels, treatment day 0 (hyperlipidemic rabbits [1]): 28.6 ± 6.7
serum total cholesterol levels, treatment day 4 (hyperlipidemic rabbits [1]): 31.9 ± 7.5
serum total cholesterol levels, treatment day 7 (hyperlipidemic rabbits [1]): 33.9 ± 7.2
serum total cholesterol levels, treatment day 10 (hyperlipidemic rabbits [1]): 33.8 ± 7.8
serum total cholesterol levels, treatment day 14 (hyperlipidemic rabbits [1]): 34.2 ± 7.4
ALP (hyperlipidemic rabbits [1]): 165.2 IU/L
ALT (hyperlipidemic rabbits [1]): 68.7 IU/L
AST (hyperlipidemic rabbits [1]): 20.8 IU/L
CK (hyperlipidemic rabbits [1]): 1172.3 U/L
CREA (hyperlipidemic rabbits [1]): 97.2 µmol/L
GLU (hyperlipidemic rabbits [1]): 7.9 mmol/L
HDL-C (hyperlipidemic rabbits [1]): 3.6 mmol/L
LDH (hyperlipidemic rabbits [1]): 47.7 IU/L
LDL-C (hyperlipidemic rabbits [1]): 29.7 mmol/L
TC (hyperlipidemic rabbits [1]): 34.2 mmol/L
TG (hyperlipidemic rabbits [1]): 1.0 mmol/L
phosphorylation of ACC [2]: induced ACC phosphorylation

COc1ccc2c(c1)CCN1Cc3c(ccc(OC)c3OS(=O)(=O)c3cccc(F)c3)CC21 (single isomer, unassigned) [128(−)]
LDLR protein levels (LDLR): effectively increased
expression of PCSK9 (protein) (PCSK9): strongly inhibited
adverse effect / toxicities (hyperlipidemic rabbits [3]): absence of any adverse effect
TC and LDL-C reduction (hyperlipidemic rabbits [1]; 14 days treatment, summary in words): strong TC and LDL-C reduction
Body weight (hyperlipidemic rabbits [1]): 2.7 kg
serum total cholesterol levels, treatment day 0 (hyperlipidemic rabbits [1]): 28.5 ± 6.3
serum total cholesterol levels, treatment day 4 (hyperlipidemic rabbits [1]): 29.9 ± 8.0
serum total cholesterol levels, treatment day 7 (hyperlipidemic rabbits [1]): 29.0 ± 7.9
serum total cholesterol levels, treatment day 10 (hyperlipidemic rabbits [1]): 27.9 ± 5.2
serum total cholesterol levels, treatment day 14 (hyperlipidemic rabbits [1]): 29.7 ± 4.9
ALP (hyperlipidemic rabbits [1]): 155.5 IU/L
ALT (hyperlipidemic rabbits [1]): 50.2 IU/L
AST (hyperlipidemic rabbits [1]): 20.8 IU/L
CK (hyperlipidemic rabbits [1]): 997.5 U/L
CREA (hyperlipidemic rabbits [1]): 105.2 µmol/L
GLU (hyperlipidemic rabbits [1]): 7.9 mmol/L
HDL-C (hyperlipidemic rabbits [1]): 3.5 mmol/L
LDH (hyperlipidemic rabbits [1]): 50.3 IU/L
LDL-C (hyperlipidemic rabbits [1]): 24.4 mmol/L
TC (hyperlipidemic rabbits [1]): 29.7 mmol/L
TG (hyperlipidemic rabbits [1]): 0.9 mmol/L
phosphorylation of ACC [2]: induced ACC phosphorylation

COc1cc2c(cc1OC)C1Cc3ccc(OC)c(OS(=O)(=O)c4ccccc4)c3CN1CC2 (centres unmarked) [Compound 91, 2,3,10-trimethoxy-5,6,7,8,13,13a-hexahydroisoquinolino[2,1-b]isoquinolin-9-yl benzenesulfonate]
LDLR mRNA expression (LDLR mRNA): dose-dependently increases
PCSK9 mRNA expression (PCSK9 mRNA): inhibits
